Read-outs that look alike come from different tables or passages of the source.
Columns and labels:
[1] = biological target: T1, recombinant human PolRMT (Homo sapiens, UniProt O00411); assay: Inhibition of PolRMT-catalyzed RNA synthesis; assay type: biochemical; conditions: read-out: Mean IC50 ± SD for PolRMT
T1 construct: purchased Enzymax (Lexington, KY)
From the text: Activated fish sperm DNA was purchased from USB/Affymetrix (Santa Clara, CA) and used as a template for the DNA polymerases alpha, beta, and gamma. […] The RNA and DNA oligonucleotides used in the mitochondrial RNA polymerase assay (see Table S1 in the supplemental material) were synthesized and PAGE purified by Thermo Scientific/Dharmacon (Lafayette, CO). RNA primer R12 was 5′-^32P-phosphorylated with [γ-^32P]ATP (3,000 Ci/mmol) and T4 kinase (New England BioLabs, Ipswich, MA).
(§1) Human DNA polymerase alpha, isolated from HeLa cell extracts, was from CHIMERx (Madison, WI). Recombinant human DNA polymerase beta, expressed in E. coli, was a gift from Zucai Suo at The Ohio State University. Recombinant human DNA polymerase gamma (including both the large subunit and the small subunit) was cloned, expressed, and purified from insect cells by Gilead Sciences (Foster City, CA) ([13]). RNA PolII was purchased as part of the HeLaScribe nuclear extract in vitro transcription system kit from Promega (Madison, WI). The recombinant human PolRMT and the transcription factors mitochondrial transcription factor A (mtTFA) and B2 (mtTFB2) were purchased from Enzymax (Lexington, KY). FLAG epitope-tagged RNA PolI and PolIII complexes were isolated from rat NSN1 cells and HeLa cells, respectively ([17], [18]). The inhibition of DNA polymerases alpha, beta, and gamma, PolRMT, and PolII and the rate of single-nucleotide incorporation by PolRMT have been described previously in detail ([12], [13], [19]). Inhibition of RNA PolI and PolIII was studied using published methods ([20], [21]). All concentrations were final unless noted otherwise. […] After incubation at 30°C for 20 min to 1 h, the reactions were terminated by pipetting the mixtures onto DEAE-cellulose discs (DE81; Whatman), and the products analyzed as described previously ([20], [21]).

[2] = biological target: T2, RNA PolII (Homo sapiens, UniProt P24928+P30876); assay: Inhibition of RNA PolII (HeLaScribe nuclear extract transcription); assay type: biochemical; conditions: nucleotide analogs (Table 6); read-out: Mean IC50 ± SD for RNA PolII
T2 construct: purchased as part of the HeLaScribe nuclear extract in vitro transcription system kit; purchased Promega (Madison, WI); host or cells: HeLa nuclear extract (endogenous enzyme)
From the text: Activated fish sperm DNA was purchased from USB/Affymetrix (Santa Clara, CA) and used as a template for the DNA polymerases alpha, beta, and gamma. The DNA template used in the RNA Pol II assay was a 1,188-bp restriction fragment containing the cytomegalovirus (CMV) immediate early promoter (Promega, Madison, WI). The RNA and DNA oligonucleotides used in the mitochondrial RNA polymerase assay (see Table S1 in the supplemental material) were synthesized and PAGE purified by Thermo Scientific/Dharmacon (Lafayette, CO). RNA primer R12 was 5′-^32P-phosphorylated with [γ-^32P]ATP (3,000 Ci/mmol) and T4 kinase (New England BioLabs, Ipswich, MA).
as §1, with “otherwise. For the RNA PolI inhibition assay, a reaction mixture containing 50 mM HEPES (pH 7.9), 20% glycerol, 100 mM KCl, 1 mM dithiothreitol (DTT), 50 μg/ml calf thymus DNA, 4 mM MgCl2, 5 or 80 μM UTP (0.25 μl of [5,6-^3H]UTP, >25 Ci/mmol; PerkinElmer), 1 mM noncompeting NTP, competing NTP (5 μM for GTP, CTP, and UTP and 25 μM for ATP), and various concentrations (0 to 500 μM) of NTP analogs was preincubated at 30°C for 5 min.” for “otherwise.”

[3] = biological target: T3, RNA PolI (Rattus norvegicus, UniProt O54889); assay: RNA PolI inhibition assay; assay type: biochemical; conditions: NTP analogs 0 to 500 μM; read-out: Mean IC50 ± SD for RNA PolI
T3 construct: complexes were isolated from rat NSN1 cells and HeLa cells, respectively; made in house; host or cells: rat NSN1 cells expressing a FLAG-tagged Pol I subunit
T3 sequence (O54889 whole entry): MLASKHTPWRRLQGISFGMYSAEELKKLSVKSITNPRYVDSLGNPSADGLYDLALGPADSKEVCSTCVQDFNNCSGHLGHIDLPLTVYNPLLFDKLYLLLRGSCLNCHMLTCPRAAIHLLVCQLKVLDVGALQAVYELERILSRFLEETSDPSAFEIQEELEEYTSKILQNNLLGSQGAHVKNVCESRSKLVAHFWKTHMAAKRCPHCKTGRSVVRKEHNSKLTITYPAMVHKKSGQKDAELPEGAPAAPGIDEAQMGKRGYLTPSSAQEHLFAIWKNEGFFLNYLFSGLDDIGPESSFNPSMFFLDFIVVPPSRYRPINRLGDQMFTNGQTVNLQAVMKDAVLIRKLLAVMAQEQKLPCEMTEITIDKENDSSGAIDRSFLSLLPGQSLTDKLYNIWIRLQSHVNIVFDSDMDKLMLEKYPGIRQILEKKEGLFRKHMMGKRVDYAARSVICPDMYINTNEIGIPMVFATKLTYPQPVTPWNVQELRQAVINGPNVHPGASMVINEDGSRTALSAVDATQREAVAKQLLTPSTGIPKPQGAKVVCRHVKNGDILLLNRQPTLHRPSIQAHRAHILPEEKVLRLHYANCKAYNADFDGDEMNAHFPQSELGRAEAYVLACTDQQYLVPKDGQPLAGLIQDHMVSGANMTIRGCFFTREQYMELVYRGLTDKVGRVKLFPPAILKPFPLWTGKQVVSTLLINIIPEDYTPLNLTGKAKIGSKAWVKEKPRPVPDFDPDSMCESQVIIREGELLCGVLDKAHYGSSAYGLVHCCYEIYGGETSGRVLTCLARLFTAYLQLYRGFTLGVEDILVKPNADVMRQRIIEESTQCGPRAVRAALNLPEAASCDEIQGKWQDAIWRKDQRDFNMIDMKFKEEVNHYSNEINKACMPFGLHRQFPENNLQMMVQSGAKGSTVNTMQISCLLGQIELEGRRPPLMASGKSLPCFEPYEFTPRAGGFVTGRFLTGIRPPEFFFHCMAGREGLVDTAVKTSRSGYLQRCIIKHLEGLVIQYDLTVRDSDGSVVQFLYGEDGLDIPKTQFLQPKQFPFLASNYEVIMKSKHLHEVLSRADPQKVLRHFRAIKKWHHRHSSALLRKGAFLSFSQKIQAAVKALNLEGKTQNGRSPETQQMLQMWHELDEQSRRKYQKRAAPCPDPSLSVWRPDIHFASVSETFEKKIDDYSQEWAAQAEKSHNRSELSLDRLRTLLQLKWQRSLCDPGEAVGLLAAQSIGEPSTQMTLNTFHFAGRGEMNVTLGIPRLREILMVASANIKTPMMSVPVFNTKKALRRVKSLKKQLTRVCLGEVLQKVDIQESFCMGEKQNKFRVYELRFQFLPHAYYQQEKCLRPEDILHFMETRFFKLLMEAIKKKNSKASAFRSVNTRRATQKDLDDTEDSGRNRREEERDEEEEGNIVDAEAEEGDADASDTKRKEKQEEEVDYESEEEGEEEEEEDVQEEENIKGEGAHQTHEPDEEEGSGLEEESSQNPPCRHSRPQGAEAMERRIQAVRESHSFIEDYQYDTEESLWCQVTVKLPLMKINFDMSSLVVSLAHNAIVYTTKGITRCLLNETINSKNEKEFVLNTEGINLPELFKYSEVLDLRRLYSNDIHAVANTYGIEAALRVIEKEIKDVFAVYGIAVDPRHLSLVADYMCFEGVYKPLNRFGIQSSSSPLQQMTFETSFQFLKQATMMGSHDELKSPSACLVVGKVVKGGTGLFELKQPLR
From the text: as §1, with “otherwise. For the RNA PolI inhibition assay, a reaction mixture containing 50 mM HEPES (pH 7.9), 20% glycerol, 100 mM KCl, 1 mM dithiothreitol (DTT), 50 μg/ml calf thymus DNA, 4 mM MgCl2, 5 or 80 μM UTP (0.25 μl of [5,6-^3H]UTP, >25 Ci/mmol; PerkinElmer), 1 mM noncompeting NTP, competing NTP (5 μM for GTP, CTP, and UTP and 25 μM for ATP), and various concentrations (0 to 500 μM) of NTP analogs was preincubated at 30°C for 5 min.” for “otherwise.”

[4] = biological target: T4, RNA PolIII (Homo sapiens, UniProt O14802+Q9NW08); assay: RNA PolIII inhibition assay; assay type: biochemical; conditions: competing NTP 100 μM CTP and GTP, 500 μM ATP; read-out: Mean IC50 ± SD for RNA PolIII
T4 construct: complexes were isolated from rat NSN1 cells and HeLa cells, respectively; made in house; host or cells: HeLa cells expressing a FLAG-tagged Pol III subunit
From the text: as §1, with “otherwise. For the RNA PolI inhibition assay, a reaction mixture containing 50 mM HEPES (pH 7.9), 20% glycerol, 100 mM KCl, 1 mM dithiothreitol (DTT), 50 μg/ml calf thymus DNA, 4 mM MgCl2, 5 or 80 μM UTP (0.25 μl of [5,6-^3H]UTP, >25 Ci/mmol; PerkinElmer), 1 mM noncompeting NTP, competing NTP (5 μM for GTP, CTP, and UTP and 25 μM for ATP), and various concentrations (0 to 500 μM) of NTP analogs was preincubated at 30°C for 5 min.” for “otherwise.”
The RNA PolIII inhibition assay was conducted in a similar manner, except that the concentrations of the competing NTP were modified to 100 μM for CTP and GTP and 500 μM for ATP to compensate for the low assay signal at lower NTP concentrations.

[5] = system: RNA transcription products from PolI (preribosome), PolII (myc), and PolRMT (ATP6) in PC-3 cells; assay: RNA transcripts in PC-3 cells by RT-PCR; assay type: cell-based, human; conditions: 5 μM, 1-day treatment
Method: CX-5461, a known specific RNA PolI inhibitor, was used as the positive control ([25]). The growth medium was aspirated and replaced with 200 μl of 100 μM BMS-986094, 5 μM CX-5461, or DMSO control prepared in growth medium. At selected time points (0.5, 1, 4, 8, and 24 h), duplicate wells of the compounds and DMSO control were aspirated, the cells were washed 1× with PBS (pH 7.4), and 100 μl of RNA lysis buffer was added (Promega, Sunnyvale, CA). RNA was purified using the Wizard SV 96 total RNA isolation kit (Promega) and eluted in 100 μl of nuclease-free water. The TaqMan RNA-to-Ct 1-step kit (ABI/Life Technologies) was used for reverse transcription-quantitative PCR (RT-qPCR) amplification and quantification, using the 7900HT Fast real-time PCR system (ABI) under the following conditions: 15 min at 48°C for reverse transcription and 10 min at 95°C for activation, followed by 40 cycles of 15 s at 95°C for denaturation and 1 min at 60°C for annealing and extension. […] Transcripts were quantified relative to the standard curves, and the results expressed as the percentages of the average value of DMSO control wells.

[6] = Cytotoxicity / ATP level in PC-3 cells, 5-day treatment; conditions: human, PC-3 cells
Method: (§3) All cells were cultured at 37°C in a 5% CO2 incubator with 90% humidity unless noted otherwise. […] All cells were treated with the various compounds for 5 days, except for human erythroid and myeloid progenitors, which were treated for 14 days. After the incubation period, cell viability was measured by the addition of CellTiter Glo viability reagents (Promega, Madison, WI). The luminescence signal was quantified on an Envision luminescence plate reader (PerkinElmer, Waltham, MA) after incubation of the reagents and cells for 10 min at room temperature. […] CC50 values were calculated as the average of the results of three or four independent experiments.
Cell Culture and Cytotoxicity Studies
(§4) The Huh-7 cells were maintained in growth medium containing Dulbecco's Modified Eagle
(§5) Medium (DMEM, Cellgro) supplemented with 1% Nonessential Amino Acids (NEAA, Cellgro,
(§6) Manassas, VA), 10% fetal bovine serum (FBS, HyClone, Logan, UT) and 1% Penicillin-
(§7) streptomycin-glutamate (PSG, Invitrogen, Carlsbad, CA). The cells were passaged twice weekly
(§8) and maintained at 90% confluence densities.
(§9) The HepG2 cells were maintained in Eagle’s Minimum Essential Medium (EMEM) from ATCC
(§10) (Manassas, VA) supplemented with 10% FBS, 100 units/mL penicillin and 100 µg/mL
(§11) streptomycin (P/S) (Gibco). The cells were passaged twice weekly and maintained at 90%
(§12) The PC-3 cells were maintained in Kaighn’s F12 medium (Gibco, Carlsbad, CA) supplemented
(§13) with 10% FBS (HyClone, Logan, UT), 100 units/mL penicillin and 100 µg/mL streptomycin
(§14) (P/S) (Gibco). The cells were passaged twice weekly and maintained at 90% confluence. Cells
(§15) between passages 4 and 15 were used in the assays.
(§16) The fibroblast cell line MRC-5 cell line derived from normal lung tissue, was purchased from
(§17) ATCC (Manassas, VA) and cultured in Minimum Essential Medium (MEM) (Cellgro, Manassas,
(§18) VA) supplemented with 10% FBS (HyClone, Logan, UT) and 1% PSG (Invitrogen). The cells
(§19) were passaged twice weekly and maintained at 90% confluence densities.

[7] = system: nuclear DNA-encoded succinate dehydrogenase (SDH-A; complex II) protein level; assay: Nuclear protein synthesis (SDH-A, MitoBiogenesis in-cell ELISA) in PC-3 cells; assay type: cell-based, human; conditions: human, read-out: Mean CC50 ± SD causing General cellular toxicity: Protein synthesis
Method: (§2) PC-3 cells were treated with the compounds for 5 days and analyzed with the MitoTox MitoBiogenesis in-cell enzyme-linked immunosorbent assay (ELISA) kit (MitoSciences/Abcam, Eugene, Oregon) as described previously ([13]). The assay uses quantitative immunocytochemistry to measure the protein levels of nuclear DNA-encoded succinate dehydrogenase (SDH-A; complex II [succinate dehydrogenase]) and mitochondrial DNA-encoded cytochrome c oxidase (COX-1; complex IV [cytochrome c oxidase]) in cultured cells.

[8] = Cytotoxicity in stimulated PBMCs, 5 days; conditions: human, stimulated PBMCs
Method: (§20) Human peripheral blood mononuclear cells (PBMCs) were isolated from human buffy coats obtained from healthy volunteers (Stanford Blood Bank, Palo Alto, CA) using standard Ficoll separation and stimulated as described elsewhere ([13]) and were tested at both quiescent and stimulated stages. Quiescent PBMCs were stimulated with 10 units per ml of recombinant human interleukin 2 (hIL-2) and 1 μg per ml phytohemagglutinin P (PHA-P) for 48 h prior to drug treatment.
as §3
(§21) Human peripheral blood mononuclear cells (PBMCs) were isolated from human buffy coats
(§22) obtained from normal healthy volunteers (Stanford Medical School Blood Center, Palo Alto,
(§23) CA). Total PBMCs were isolated from buffy coats using standard Ficoll separation and sterile
(§24) cellular isolation techniques performed in a bio-safety cabinet (1). Except where noted, the
(§25) procedure was carried out at room temperature. The final PBMCs pellet was resuspended in
(§26) Logan, UT), penicillin 100 units/mL and streptomycin 100 µg/mL (Gibco). For quiescent
(§27) PBMCs cultures, total cells were seeded in 96-well plates at a density of 1 x 10^6 cells per well, followed by immediate drug treatment. Stimulated PBMCs cultures were set up by seeding the freshly isolated PBMCs in T-175cm2 tissue culture flasks in 100 mL of RPMI containing the same components as the ones used for the quiescent PBMCs but with the addition of 10 units per mL of recombinant human interleukin-2 (hIL-2, Roche, Indianapolis, IN), and 1 µg per mL phytohemagglutinin-P (PHA-P, Sigma-Aldrich, St. Louis, MO) at density of 2  10^6 cells per mL for 48 hours at 37C in a 5% CO2 incubator with 90% humidity, prior to drug treatment.

[9] = Cytotoxicity in HepG2 (galactose) cells, 5-day treatment; conditions: human, HepG2 cells (galactose)
[10] = Bone marrow erythroid progenitor colony assay, 14 days; assay type: cell-based, human; conditions: human, human bone marrow erythroid progenitors, read-out: Mean CC50 ± SD in Bone marrow cells Erythroid
[11] = Cytotoxicity in quiescent PBMCs, 5 days; conditions: human, quiescent PBMCs
Method: as §20, §3, §21, §22, §23, §24, §25, §26, §27

[12] = Cytotoxicity in MT-4 T-cells, 5-day treatment; conditions: human, MT-4 cells
Method: (§28) Primary human hepatocytes were from Bioreclamation IVT (Westbury, NY) or Life Technologies (Carlsbad, CA).
as §3

[13] = system: mitochondrial spare respiratory capacity; assay: Oxygen consumption rate / spare respiratory capacity in PC-3 cells; conditions: human, PC-3 cells, pH 7.4
Method: (§29) Mitochondrial respiration was monitored by measuring the rate of oxygen consumption (OCR) of PC-3 cells after 3-day treatments with the compounds, using a Seahorse extracellular flux analyzer (XF^e-96) based on published protocols ([22][–][24]). The optimal cell seeding was determined by measuring the basal OCR of PC-3 cells that were seeded at different densities of 2.5 × 10^3, 5 × 10^3, 7.5 × 10^3, and 10 × 10^3 cells/well in XF 96-well plates (Seahorse Bioscience, North Billerica, MA) and incubated with 0.5% dimethyl sulfoxide (DMSO) for 3 days. […] Each reagent in the Mito Stress test kit (Seahorse Biosciences), i.e., ATP synthase inhibitor oligomycin, mitochondrial uncoupler carbonyl cyanide-4-(trifluoromethoxy)phenylhydrazone (FCCP), and a fixed-ratio mixture of the mitochondrial complex I (NADH dehydrogenase) inhibitor rotenone and the complex III (CoQH2-cytochrome c reductase) inhibitor antimycin A, was titrated. The lowest concentration that reached the maximal effect was chosen for each reagent. The OCR signals were normalized by cell numbers using DNA content determined by Hoechst's stain as described below.
(§30) PC-3 cells were seeded at a density of 5 × 10^3 cells/well in XF 96-well plates and incubated with the compounds for 3 days. On the day of the assay, the cell medium was replaced with XF assay medium (pH 7.4) containing 10 mM glucose and 1 mM freshly prepared pyruvate. Mitochondrial respiration was monitored by measuring OCR on a Seahorse extracellular flux analyzer (XF^e-96). All concentrations listed are the final concentration after mixing unless noted otherwise. […] Spare respiratory capacity was obtained by subtracting the rate of basal respiration from the rate of maximal respiration.
(§31) The cells were lysed by freezing at −80°C for >2 h. […] In parallel, another set of cells was treated with the compounds for 3 days and the ATP levels were measured using CellTiter Glo viability reagents (Promega, Madison, WI).

[14] = system: mitochondrial spare respiratory capacity in PC-3 cells; assay: as above; conditions: PC-3 cells, 3-day treatments
Method: as §29, §30, §31

[15] = system: mitochondrial DNA-encoded cytochrome c oxidase (COX-1; complex IV) protein level; assay: Mitochondrial protein synthesis assay (COX-1, MitoBiogenesis in-cell ELISA) in PC-3 cells; assay type: cell-based, human; conditions: human; PC-3 cells, COX-1, 5 days; read-out: Mean CC50 ± SD causing Mitochondrial toxicity: Protein synthesis
Method: as §2

[16] = system: mitochondrial DNA-encoded cytochrome c oxidase (COX-1); assay: as above; assay type: cell-based, human; conditions: PC-3 cells, 5-day treatments
Method: as §2

[17] = Cytotoxicity in Huh7 cells, 5-day treatment (CellTiter Glo); conditions: human, Huh-7 cells
[18] = Cytotoxicity in primary rat neonatal cardiomyocytes, 5 days; assay type: cell-based; conditions: Sprague Dawley, primary rat neonatal cardiomyocytes, 5-day treatment, read-out: CC50 (mean ± standard deviation) in primary rat cardiomyocytes
[19] = Bone marrow myeloid progenitor colony assay, 14 days; assay type: cell-based, human; conditions: human, human bone marrow myeloid progenitors, read-out: Mean CC50 ± SD in Bone marrow cells Myeloid
[20] = Cytotoxicity in primary human hepatocytes, 5 days; conditions: human, primary human hepatocytes
Method: as §28, §3

[21] = Cytotoxicity in MRC5 fibroblasts, 5-day treatment; conditions: human, MRC5 fibroblasts
Method: as §3
Cell Culture and Cytotoxicity Studies
as §4, §5, §6, §7, §8, §9, §10, §11, §12, §13, §14, §15, §16, §17, §18, §19

T1 sequence (O00411 42-1230): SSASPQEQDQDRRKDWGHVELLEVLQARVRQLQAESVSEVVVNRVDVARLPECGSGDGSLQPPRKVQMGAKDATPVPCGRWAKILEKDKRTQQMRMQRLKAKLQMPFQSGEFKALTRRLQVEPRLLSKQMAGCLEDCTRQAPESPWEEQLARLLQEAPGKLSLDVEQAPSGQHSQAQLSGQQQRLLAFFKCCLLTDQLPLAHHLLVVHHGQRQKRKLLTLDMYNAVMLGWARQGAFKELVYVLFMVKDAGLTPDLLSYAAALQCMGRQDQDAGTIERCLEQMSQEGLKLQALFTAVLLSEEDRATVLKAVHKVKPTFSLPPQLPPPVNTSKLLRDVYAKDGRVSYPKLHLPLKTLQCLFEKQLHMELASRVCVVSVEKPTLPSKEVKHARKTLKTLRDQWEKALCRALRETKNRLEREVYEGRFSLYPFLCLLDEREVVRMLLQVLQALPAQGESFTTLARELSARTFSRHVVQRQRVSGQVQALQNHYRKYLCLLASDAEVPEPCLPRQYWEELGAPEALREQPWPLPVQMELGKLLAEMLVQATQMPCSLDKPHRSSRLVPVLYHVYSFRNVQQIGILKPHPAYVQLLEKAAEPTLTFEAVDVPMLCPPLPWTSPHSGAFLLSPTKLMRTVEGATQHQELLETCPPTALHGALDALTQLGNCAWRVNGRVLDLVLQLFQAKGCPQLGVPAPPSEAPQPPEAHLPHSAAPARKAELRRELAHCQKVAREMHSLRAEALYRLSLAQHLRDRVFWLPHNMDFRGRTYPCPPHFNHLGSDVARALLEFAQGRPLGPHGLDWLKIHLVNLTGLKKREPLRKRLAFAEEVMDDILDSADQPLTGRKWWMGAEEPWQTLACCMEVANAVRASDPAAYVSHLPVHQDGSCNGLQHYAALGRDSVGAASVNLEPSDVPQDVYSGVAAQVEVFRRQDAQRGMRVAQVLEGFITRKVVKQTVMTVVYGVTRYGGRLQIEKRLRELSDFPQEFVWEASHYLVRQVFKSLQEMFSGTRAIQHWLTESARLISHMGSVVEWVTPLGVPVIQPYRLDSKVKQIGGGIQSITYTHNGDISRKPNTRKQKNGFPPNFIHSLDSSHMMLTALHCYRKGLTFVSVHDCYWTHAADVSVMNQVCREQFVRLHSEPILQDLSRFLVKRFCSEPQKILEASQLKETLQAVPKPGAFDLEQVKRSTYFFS

With `C[C@@]1(O)[C@H](O)[C@@H](COP(=O)(O)OP(=O)(O)OP(=O)(O)O)O[C@H]1n1ccc(=O)[nH]c1=O` [2′CMeUTP] the IC50 ([1]; nucleotide analogs (Table 6)) was 240000 ± 30000 nM, the IC50 [2] was greater than 500000 nM and the IC50 [3] was 690000 ± 230000 nM. For the same compound, the IC50 [4] was greater than 500000 nM.
In the case of `Nc1nc2c(ncn2[C@@H]2O[C@H](COP(=O)(O)OP(=O)(O)OP(=O)(O)O)C[C@H]2O)c(=O)[nH]1` [3′deoxyGTP], the IC50 ([1]; nucleotide analogs (Table 6)) is reported as 4200 ± 1400 nM, the IC50 ([1]; triphosphate form of the compound tested (Table 4)) is reported as 4200 ± 1400 nM and the IC50 [2] is reported as greater than 500000 nM. It also gave an IC50 [3] of 25000 ± 2000 nM and an IC50 [4] of 104000 ± 20000 nM.
In the case of `Cc1cnc(CNC(=O)c2c(=O)c3ccc(N4CCCN(C)CC4)nc3n3c2sc2ccccc23)cn1` [CX-5461], the “relative levels of RNA transcripts (pre-rRNA, myc, mitochondrial ATP6)” value [5] is reported as “selectively decreased pre-rRNA but had no effect on the levels of myc and mitochondrial ATP6 RNAs”.
`COc1ccc(C[C@H](N)C(=O)N[C@H]2[C@@H](O)[C@H](n3cnc4c(N(C)C)ncnc43)O[C@@H]2CO)cc1` [Puromycin] gave a CC50 at 5 days [6] of 220 ± 70 nM, a CC50 at 5 days [7] of 150 ± 10 nM and a CC50 at 5 days [8] of 1000 ± 200 nM. It also gave a CC50 at 5 days [9] of 650 ± 180 nM, a CC50 at 14 days [10] of 360 ± 60 nM and a CC50 at 5 days [11] of 4500 ± 1900 nM. For the same compound, the CC50 at 5 days [12] was 160 ± 60 nM, the CC50 at 3 days [13] was 490 ± 110 nM and the “selectivity of effect on spare respiratory capacity versus DNA and ATP levels” value [14] was “nonselective inhibition of the spare respiratory capacity, DNA, and ATP levels”. For the same compound, the CC50 at 5 days [15] was 120 ± 10 nM, the “selectivity of effect on COX-1 versus SDH-A and ATP levels” value [16] was “nonselective inhibitive effects on the COX-1, SDH-A, and ATP levels” and the CC50 at 5 days [17] was 520 ± 190 nM. For the same compound, the CC50 at 5 days [18] was 330 ± 50 nM, the CC50 at 14 days [19] was 270 ± 40 nM and the CC50 at 5 days [20] was 1900 ± 800 nM. For the same compound, the CC50 at 5 days [21] was 240 ± 50 nM.

— article PMC4750701, “Role of Mitochondrial RNA Polymerase in the Toxicity of Nucleotide Inhibitors of Hepatitis C Virus” (Antimicrobial Agents and Chemotherapy, 2016)
